Data: PubChem BioAssay AID1259411 (Chemical Carcinogenesis Research Information System (CCRIS), 2018)
Active and inactive are the calls of the source. The rule behind the calls is not given here.

Tested on: rodent carcinogenicity bioassays, tumor incidence
Experiment: CCRIS carcinogenicity studies
Conditions: Dose: 0
Method in brief: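 Archive of carcinogenicity, mutagenicity, tumor promotion and tumor inhibition results drawn from journals, NCI reports and other sources, expert-reviewed; covers 1985-2011 and is no longer updated.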

SMILES: O=[N+]([O-])c1cc2c3ccccc3ccc2c2ccccc12
- carcinogen call (Species: MOUSE, Strain/Sex: B6C3F1/MALE, Route: INTRAPERITONEAL, 400 NMOL IN 35 µL DMSO ON DAYS 1 (1/7 TOTAL DOSE), 8 (2/7 TOTAL DOSE), AND 15 (4/7 TOTAL DOSE) AFTER BIRTH (STUDY DUR, Tumor Site: Type of Lesion: LIVER: ADENOMA OR CARCINOMA, LUNG: TUMOR): active; positive
- carcinogen call (Species: MOUSE, Strain/Sex: BLU:HA/FEMALE, Route: INTRAPERITONEAL, 38.5, 189 UG (TOTAL DOSE) GIVEN TO NEWBORN MICE IN 3 DOSES OF 1/7, 2/7 AND 4/7 OF THE TOTAL ON DAYS 1, 8 AND 15 RESPE, 38.5, 189 UG (TOTAL DOSE) GIVEN TO NEWBORN MICE IN 3 DOSES OF 1/7, 2/7 AND 4/7 OF THE TOTAL ON DAYS 1, 8 AND 15 RESPE, Tumor Site: Type of Lesion: LUNG: TUMORS): active; positive
- carcinogen call (Species: MOUSE, Strain/Sex: BLU:HA/MALE, Route: INTRAPERITONEAL, 38.5, 189 UG (TOTAL DOSE) GIVEN TO NEWBORN MICE IN 3 DOSES OF 1/7, 2/7 AND 4/7 OF THE TOTAL ON DAYS 1, 8 AND 15 RESPE, 38.5, 189 UG (TOTAL DOSE) GIVEN TO NEWBORN MICE IN 3 DOSES OF 1/7, 2/7 AND 4/7 OF THE TOTAL ON DAYS 1, 8 AND 15 RESPE, Tumor Site: Type of Lesion: LUNG: TUMORS): active; positive
- carcinogen call (Species: MOUSE, Strain/Sex: ICR/FEMALE, Route: INTRAPERITONEAL, 7.5, 15, 30 µL OF A 26.7 NMOL/UL DMSO SOLUTION ON 1,8, AND 15 D OF AGE RESPECTIVELY (TOTAL DOSE: 0; 1.4 UMOL) (STUDY, 7.5, 15, 30 µL OF A 26.7 NMOL/UL DMSO SOLUTION ON 1,8, AND 15 D OF AGE RESPECTIVELY (TOTAL DOSE: 0; 1.4 UMOL) (STUDY, Tumor Site: Type of Lesion: LUNG: ADENOMA): active; positive
- carcinogen call (Species: MOUSE, Strain/Sex: ICR/FEMALE, Route: INTRAPERITONEAL, 7.7 UG TOTAL DOSE (1.1 UG/5 µL, 2.2 UG/10 µL, 4.4 UG/20 µL DMSO ON DAYS 1, 8 AND 15) ADMINISTERED TO NEWBORN ANIMALS, Tumor Site: Type of Lesion: LUNG: ADENOMA, ADENOCARCINOMA): active; positive
- carcinogen call (Species: MOUSE, Strain/Sex: ICR/FEMALE, Route: INTRAPERITONEAL, 100 NMOL (TOTAL DOSE) ADMINISTERED IN 3 SUBDOSES OF 1/7, 2/7, AND 4/7 ON DAYS 1, 8 AND 15 OF LIFE, RESPECTIVELY (STUD, Tumor Site: Type of Lesion: LUNG: TUMORS): active; positive
- carcinogen call (Species: MOUSE, Strain/Sex: ICR/MALE, Route: INTRAPERITONEAL, 7.5, 15, 30 µL OF A 26.7 NMOL/UL DMSO SOLUTION ON 1,8, AND 15 D OF AGE RESPECTIVELY (TOTAL DOSE: 0; 1.4 UMOL) (STUDY, 7.5, 15, 30 µL OF A 26.7 NMOL/UL DMSO SOLUTION ON 1,8, AND 15 D OF AGE RESPECTIVELY (TOTAL DOSE: 0; 1.4 UMOL) (STUDY, Tumor Site: Type of Lesion: LUNG: ADENOMA): active; positive
- carcinogen call (Species: MOUSE, Strain/Sex: ICR/MALE, Route: INTRAPERITONEAL, 7.7 UG TOTAL DOSE (1.1 UG/5 µL, 2.2 UG/10 µL, 4.4 UG/20 µL DMSO ON DAYS 1, 8 AND 15) ADMINISTERED TO NEWBORN ANIMALS, Tumor Site: Type of Lesion: LUNG: ADENOMA, ADENOCARCINOMA): active; positive
- carcinogen call (Species: MOUSE, Strain/Sex: ICR/MALE, Route: INTRAPERITONEAL, 100 NMOL (TOTAL DOSE) ADMINISTERED IN 3 SUBDOSES OF 1/7, 2/7, AND 4/7 ON DAYS 1, 8 AND 15 OF LIFE, RESPECTIVELY (STUD, Tumor Site: Type of Lesion: LUNG: TUMORS, LIVER: TUMORS): active; positive
- carcinogen call (Species: MOUSE, Strain/Sex: SWISS/FEMALE, Route: INTRAPERITONEAL, 100, 700 NMOL (TOTAL DOSE) 1/7, 2/7 AND 4/7 ADMINISTERED ON DAYS 1, 8 AND 15 OF LIFE RESPECTIVELY (STUDY DURATION: 32, 100, 700 NMOL (TOTAL DOSE) 1/7, 2/7 AND 4/7 ADMINISTERED ON DAYS 1, 8 AND 15 OF LIFE RESPECTIVELY (STUDY DURATION: 32, Tumor Site: Type of Lesion: LUNG: TUMOR): active; positive
- carcinogen call (Species: MOUSE, Strain/Sex: SWISS/FEMALE, Route: INTRAPERITONEAL, 100 NMOL (TOTAL DOSE) ADMINISTERED 1/7, 2/7 AND 4/7 ON DAY 1, 8 AND 15 RESPECTIVELY (STUDY DURATION: 32 WK), Tumor Site: Type of Lesion: LUNG: TUMOR): active; positive
- carcinogen call (Species: MOUSE, Strain/Sex: SWISS/FEMALE, Route: INTRAPERITONEAL, 100 NMOL ON DAY 1 OF LIFE (STUDY DURATION: 32 WK), Tumor Site: Type of Lesion: LUNG: TUMOR, LIVER: TUMOR): active; positive
- carcinogen call (Species: MOUSE, Strain/Sex: SWISS/MALE, Route: INTRAPERITONEAL, 100, 700 NMOL (TOTAL DOSE) 1/7, 2/7 AND 4/7 ADMINISTERED ON DAYS 1, 8 AND 15 OF LIFE RESPECTIVELY (STUDY DURATION: 32, 100, 700 NMOL (TOTAL DOSE) 1/7, 2/7 AND 4/7 ADMINISTERED ON DAYS 1, 8 AND 15 OF LIFE RESPECTIVELY (STUDY DURATION: 32, Tumor Site: Type of Lesion: LUNG: TUMOR, LIVER: TUMOR): active; positive
- carcinogen call (Species: MOUSE, Strain/Sex: SWISS/MALE, Route: INTRAPERITONEAL, 100 NMOL (TOTAL DOSE) ADMINISTERED 1/7, 2/7 AND 4/7 ON DAY 1, 8 AND 15 RESPECTIVELY (STUDY DURATION: 32 WK), Tumor Site: Type of Lesion: LIVER: TUMOR, LUNG: TUMOR): active; positive
- carcinogen call (Species: MOUSE, Strain/Sex: SWISS/MALE, Route: INTRAPERITONEAL, 100 NMOL ON DAY 1 OF LIFE (STUDY DURATION: 32 WK), Tumor Site: Type of Lesion: LUNG: TUMOR, LIVER: TUMOR): active; positive
- carcinogen call (Species: RAT, Strain/Sex: CD-1/FEMALE, Route: INTRAPERITONEAL, 15, 30, 60, 150, 300 µL OF A 26.7 NMOL/UL SOLUTION ON 1, 8, 15, 22, AND 29 D OF AGE RESPECTIVELY (TOTAL DOSE: 0, 14.8, 15, 30, 60, 150, 300 µL OF A 26.7 NMOL/UL SOLUTION ON 1, 8, 15, 22, AND 29 D OF AGE RESPECTIVELY (TOTAL DOSE: 0, 14.8, Tumor Site: Type of Lesion: COLON: ADENOCARCINOMA, ADENOMA/DYSPLASIA): active; positive
- carcinogen call (Species: RAT, Strain/Sex: CD-1/MALE, Route: INTRAPERITONEAL, 15, 30, 60, 150, 300 µL OF A 26.7 NMOL/UL DMSO SOLUTION ON 1, 8, 15, 22 AND 29 D OF AGE RESPECTIVELY (TOTAL DOSE: 0;, 15, 30, 60, 150, 300 µL OF A 26.7 NMOL/UL DMSO SOLUTION ON 1, 8, 15, 22 AND 29 D OF AGE RESPECTIVELY (TOTAL DOSE: 0;, Tumor Site: Type of Lesion: COLON: ADENOCARCINOMA, ADENOMA): active; positive
- carcinogen call (Species: RAT, Strain/Sex: STRAIN-CD/ FEMALE, Route: INJECTION, 2.04 UMOL IN 0.1 ML DMSO INJECTED BENEATH EACH OF THREE LEFT THORACIC NIPPLES THEN ON THE NEXT DAY BENEATH EACH THE T, Tumor Site: Type of Lesion: MAMMARY GLAND: TUMOR): active; positive
- carcinogen call (Species: RAT, Strain/Sex: STRAIN-CD/FEMALE, Route: INJECTION, 2.04 UMOL IN 100 µL DMSO INJECTED INTO 3 THORACIC MAMMARY GLANDS ON DAY 1 AND INTO 3 INQUINAL MAMMARY GLANDS ON DAY 2, Tumor Site: Type of Lesion: MAMMARY GLAND: FIBROADENOMA, ADENOCARCINOMA, SPINDLE CELL SARCOMA): active; positive

SMILES: O[C@H]1C=C2c3c(cccc3[C@@H]1O)-c1ccc3ccccc3c12
- carcinogen call (Species: MOUSE, Strain/Sex: CD-1/FEMALE, Route: INTRAPERITONEAL, 0.275, 1.1 UMOL (TOTAL DOSE) ADMINISTERED OVER DAYS 1, 8, AND 15 OF LIFE (STUDY DURATION: 52 WEEKS), 0.275, 1.1 UMOL (TOTAL DOSE) ADMINISTERED OVER DAYS 1, 8, AND 15 OF LIFE (STUDY DURATION: 52 WEEKS), Tumor Site: Type of Lesion: LUNG: ALVEOLAR/BRONCHIOLAR CARCINOMA): active; positive
- carcinogen call (Species: MOUSE, Strain/Sex: CD-1/MALE, Route: INTRAPERITONEAL, 0.275, 1.1 UMOL (TOTAL DOSE) ADMINISTERED OVER DAYS 1, 8, AND 15 OF LIFE (STUDY DURATION: 52 WEEKS), 0.275, 1.1 UMOL (TOTAL DOSE) ADMINISTERED OVER DAYS 1, 8, AND 15 OF LIFE (STUDY DURATION: 52 WEEKS), Tumor Site: Type of Lesion: LUNG: ALVEOLAR/BRONCHIOLAR CARCINOMA, LIVER: ADENOMA OR CARCINOMA): active; positive

SMILES: NNc1ccc(C(=O)O)cc1
- carcinogen call (Species: MOUSE, Strain/Sex: STRAIN-A/FEMALE, Route: ORAL, 1000 PPM IN DRINKING WATER FOR 26 WK (STUDY DURATION: 26 WK)): inactive; negative
